According to PMC5507300, “Antibacterial small molecules targeting the conserved TOPRIM domain of DNA gyrase” (PLoS ONE, 2017):
pIC50: −log10 of the molar value. In brackets after ≈: the same amount, converted by molar mass. Entries after “also recorded” stand apart in the source; their conditions may differ.

Key:
[1] = system: E. coli HS151 (qnrVC); assay: Broth microdilution MIC, E. coli HS151 (qnrVC); format: cell-based
Description: E. coli HS151 (ΔtolC) has been described previously. Gyrase inhibitor-resistant isolates (GYR101-108) were derived by selection for spontaneous resistance to MRL-770 or MRL-423 (Fig 1) in E. coli HS151 as described below. E. coli BW25113 and the Keio gene deletion collection based on BW25113 [25] were obtained from Thermo Fisher Scientific (Waltham, MA) and described in [26]. The plasmid-borne FQ resistance determinant, qnrVC3 [27], was kindly provided by D. Hooper (Massachusetts General Hospital). MB9796 (A. baumannii) is a derivative of MB9797 (ATCC19606) lacking lipopolysaccharide. The efflux-defective P. aeruginosa strain MB5890 (CB398) is a derivative of MB5919 (PAO1). MB2884 (E. coli) and CL15245 (K. pneumoniae) are clinical isolates from the Merck & Co., Inc., Kenilworth, NJ, USA, strain collection. S. aureus COL is a methicillin-resistant clinical isolate.
Compound doubling dilutions were prepared in 100% DMSO (Sigma Aldrich) and 2 μL of each dilution was transferred to a 96-well plate with lid (Thermo Scientific). Inoculum for all MIC testing was prepared using the BBL Prompt Inoculation System (Becton Dickinson, Franklin Lakes, NJ USA) as described by the manufacturer to produce a suspension of cells at approximately 1.5 x 10^8 colony forming units (CFU)/mL [34–36] and a further dilution (1:1000) was made into cation adjusted Mueller-Hinton broth (CAMH broth, Becton-Dickinson). One hundred μL of this inoculum were then transferred to each well of the 96-well plate containing diluted compound (above). Plates were covered and incubated overnight (18 hrs.) at 37°C.

[2] = target: T1, E. coli DNA gyrase (Escherichia coli, UniProt P0AES6); assay: Agarose gel DNA gyrase supercoiling assay, E. coli; format: biochemical
T1 construct: purchased New England Biolabs, Beverly, MA
Description: Conditions to measure the supercoiling of a relaxed, closed-circular plasmid substrate and cleavage complex stabilization in agarose gels were adapted from the literature and carried out as described below. Plasmid supercoiling reactions were assembled by combining 0.4 μL compound (in 100% DMSO), 12.5 μL H2O, 4 μL 5Xbuffer, 0.4 μL relaxed pUC19 DNA substrate (0.5 μg), […] dilute DNA gyrase (buffer, substrate, and enzyme from New England Biolabs, Beverly, MA). Alternatively the substrate pHOT-1 (TopoGEN, Buena Vista, CO) was used as noted (the substrate from New England Biolabs has been discontinued). P. aeruginosa DNA gyrase was supplied by Inspiralis, Norwich, UK. Reactions were allowed to proceed for 30 min. at 37°C after which 5 μL of stop buffer (5% sarkosyl, 25% glycerol, 1X Blue Juice [Invitrogen, Carlsbad, CA]) were added. Reactions were then extracted with 20 μL chloroform/isoamylOH (24:1) and a portion of the aqueous phase was loaded into a well in a 1% agarose/Tris-borate EDTA gel. Electrophoresis was conducted at 35 VDC until the loading dye migrated about 6.5 cm down the gel. DNA in the gel was then stained in 0.5 μg/mL ethidium bromide in water for 30 min. and rinsed (3X) in H2O. The gel was illuminated with UV light, photographed, and DNA quantitated with an Alpha Imager and accompanying software (ProteinSimple, San Jose, CA).

[3] = system: DNA synthesis in E. coli JL553; assay: Macromolecule synthesis labeling; format: cell-based; details: E. coli JL553, 25 min exposure, labeled precursor incorporation
Description: Macromolecule synthesis profiling was conducted as described by Montgomery, et al. with minor modifications. E. coli strain JL553 (tolC, lysE) was used to measure inhibition of DNA, RNA, protein, peptidoglycan and phospholipid biosynthesis while E. coli MB5500 (lpxC [envA1], galE; Merck & Co., Inc., Kenilworth, NJ, USA, strain collection) was used to measure inhibition of lipopolysaccharide biosynthesis. Radioisotope labeled precursors were used at the following final concentrations [2-^14C]-thymidine (2.5 μCi/mL), [^14C(U)]-uridine (0.5 μCi/mL), L-[4, 5-^3H]-leucine (5 μCi/mL), [2-^3H]-glycerol (2 μCi/mL), [^3H]-diaminopimelic acid (3 μCi/mL), D-[1-^14C]-galactose (0.5 μCi/mL). Compound concentrations (3-fold serial dilutions) were chosen to place the minimum inhibitory concentration (see below) near the center of the dose range. Labeled cultures were incubated with compound for 25 min; stopped with trichloroacetic acid, filtered and incorporation was measured as described. Percent inhibition of incorporation was calculated relative to an untreated control culture for each labeled precursor and plotted with GraphPad Prism.

[4] = target: T2, E. coli topoisomerase IV (Escherichia coli, UniProt P20083); assay: E. coli topoisomerase IV decatenation reaction; format: biochemical; details: maximum achievable concentration (200 μM), kDNA decatenation
T2 construct: purchased TopoGEN, Inc
T2 sequence (P20083 whole entry): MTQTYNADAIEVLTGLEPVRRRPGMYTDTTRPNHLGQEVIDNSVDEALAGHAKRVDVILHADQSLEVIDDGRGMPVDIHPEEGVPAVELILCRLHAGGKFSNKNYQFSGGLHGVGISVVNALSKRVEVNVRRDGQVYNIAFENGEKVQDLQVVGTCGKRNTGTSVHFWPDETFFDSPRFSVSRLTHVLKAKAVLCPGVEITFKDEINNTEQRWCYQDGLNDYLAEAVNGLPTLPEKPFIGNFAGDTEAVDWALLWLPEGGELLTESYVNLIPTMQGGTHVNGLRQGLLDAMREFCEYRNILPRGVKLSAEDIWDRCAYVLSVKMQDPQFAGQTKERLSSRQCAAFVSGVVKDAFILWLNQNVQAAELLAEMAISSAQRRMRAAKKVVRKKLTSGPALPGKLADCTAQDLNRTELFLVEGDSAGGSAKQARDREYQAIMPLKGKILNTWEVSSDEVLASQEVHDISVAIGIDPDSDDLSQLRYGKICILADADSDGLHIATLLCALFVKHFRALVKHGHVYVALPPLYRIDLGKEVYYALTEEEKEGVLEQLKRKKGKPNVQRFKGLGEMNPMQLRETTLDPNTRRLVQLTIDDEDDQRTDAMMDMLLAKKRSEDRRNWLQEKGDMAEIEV
T2 sequence (P0AFI2 whole entry, further chain): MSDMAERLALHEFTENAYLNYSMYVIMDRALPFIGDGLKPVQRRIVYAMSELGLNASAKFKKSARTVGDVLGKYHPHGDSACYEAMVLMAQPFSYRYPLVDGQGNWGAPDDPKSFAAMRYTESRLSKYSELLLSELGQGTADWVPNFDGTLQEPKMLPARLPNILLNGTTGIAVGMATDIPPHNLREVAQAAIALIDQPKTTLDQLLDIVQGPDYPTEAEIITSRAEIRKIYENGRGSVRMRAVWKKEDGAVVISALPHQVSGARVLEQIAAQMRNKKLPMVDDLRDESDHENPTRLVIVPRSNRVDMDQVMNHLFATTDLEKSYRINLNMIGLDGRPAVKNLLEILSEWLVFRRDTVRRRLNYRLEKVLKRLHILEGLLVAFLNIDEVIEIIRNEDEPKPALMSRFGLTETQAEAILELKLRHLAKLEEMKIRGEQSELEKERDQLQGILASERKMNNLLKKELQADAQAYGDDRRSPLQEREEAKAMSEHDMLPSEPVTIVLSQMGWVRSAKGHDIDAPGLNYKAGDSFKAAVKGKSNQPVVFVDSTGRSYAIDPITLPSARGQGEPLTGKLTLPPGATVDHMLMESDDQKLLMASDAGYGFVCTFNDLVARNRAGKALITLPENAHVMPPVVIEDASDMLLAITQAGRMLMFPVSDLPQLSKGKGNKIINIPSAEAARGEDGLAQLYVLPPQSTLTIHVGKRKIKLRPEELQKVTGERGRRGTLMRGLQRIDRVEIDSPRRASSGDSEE

[5] = system: E. coli HS151; assay: In vitro time-dependent bactericidal study; format: cell-based
Description: A culture of E. coli HS151 in CAMH broth was grown overnight (18 hrs.) at 37°C, diluted 1:10,000 in 200 mL of fresh CAMH broth and further incubated for 1 hour at 37°C with shaking. A time-zero sample was then removed and 20 mL portions of the remaining culture were transferred into 125 mL vented flasks to which were added MRL-1082 or control antibiotics, at the indicated concentrations. These flasks were then incubated at 37°C with shaking (70 rpm). Samples were withdrawn at the indicated times, plated on blood agar (trypticase soy agar with 5% sheep blood, Becton-Dickinson) and, following overnight growth at 37°C, colonies were counted to determine CFU/mL.

For `Cn1ncc2cc(-c3cnnn3C3CCN(C(=O)Nc4cc(Cl)cc(Cl)c4)CC3)ccc21` [MRL-423], the “resistance conferred by qnrVC3 expression” value ([1]; E. coli HS151 with plasmid qnrVC3 vs HS151) was “no effect”, the MIC ([1]; Escherichia coli) was 0.25 µg/mL (≈ 0.532 µM) and the pIC50 [2] was ~5.12.

In the case of `COc1ccc(C)cc1NC(=O)N1CCC(n2nncc2-c2ccc3c(cnn3C)c2)CC1` [MRL-770], the “inhibition of macromolecule synthesis” value [3] was “selective and reproducible inhibition of DNA synthesis” and the “inhibition of E. coli DNA gyrase (gel)” value ([2]; S1 Fig, pHOT-1 substrate) was “limited; also recorded: dose-dependent inhibition of enzyme activity”.

With `Cn1ncc2cc(-c3nnnn3C3CCN(C(=O)Nc4ccc(Cl)c(Cl)c4)CC3)ccc21` [MRL-1082] the “activity against E. coli topoisomerase IV” value [4] was “does not inhibit”, the “reduction in culture viability” value ([5]; E. coli HS151, 2XMIC or greater, following 2–4 hours of treatment) was “greater than 3 log” and the “culture viability, below lower limit of quantitation” value ([5]; E. coli HS151, 4-8XMIC, after 8 hours) was < 20 CFU/mL. It also gave an MIC ([5]; Escherichia coli, HS151, 24 h, read-out: MIC of isolates from treated culture) of 0.0625 µg/mL.
